Laboratory results published in patent US20110015119A1, “NOVEL SEMI-SYNTHETIC GLYCOPEPTIDES AS ANTIBACTERIAL AGENTS” (LEAD THERAPEUTICS, INC., priority 2009, published 2011).
In brackets after ≈: the same amount, converted by molar mass. Like-named read-outs stand apart in the source and are kept apart here.

Assays:
Type in all cases: cell-based
[1] = tested on: Enterococcus faecalis 101 (ATCC 29212); test: MIC by broth microdilution, EFc 101; details: class symbols
Protocol: (§1) Antibacterial activity in vitro is investigated by broth microdilution method in Meuller-Hinton broth as recommended by NCCLS. All strains tested are clinical isolates either sensitive or resistant to natural glycopeptides. MIC values were determined using the CLSI-recommended broth microdilution procedure (Clinical and Laboratory Standards Institute, Methods for Dilution Antimicrobial Susceptibility Tests for Bacteria That Grow Aerobically; Approved Standard-Seventh Edition.). Automated liquid handlers (Multidrop 384, Labsystems, Helsinki, Finland; Biomek 2000 and Multimek 96, Beckman Coulter, Fullerton Calif.) were used to conduct serial dilutions and liquid transfers. The MIC value for vancomycin is given for comparison. The abbreviations for organisms tested are as follow: SA 100—Staphylococcus aureus 100 (ATCC 29213); SA 757—Staphylococcus aureus 757 (MRSA); SA 2012—Staphylococcus aureus 2012 (VISA); SE 835—Staphylococcus epidermidis 835; SE 831—Staphylococcus epidermidis 831 (MRSE); EFc 101—Enterococcus faecalis 101 (ATCC 29212); EFc 848—Enterococcus faecalis 848 (VRE, Van A); EFcm 800—Enterococcus faecium 800; EFcm 752—Enterococcus faecium 752 (VRE, Van A); SPNE 1195—Streptococcus pneumoniae 1195 (ATCC 49619); SPY 712—Streptococcus pyogenes 712.

[2] = tested on: Enterococcus faecalis 848 (VRE, Van A); test: MIC by broth microdilution, EFc 848; details: class symbols
Protocol: as §1

[3] = tested on: Streptococcus pneumoniae 1195 (ATCC 49619); test: MIC by broth microdilution, SPNE 1195
Protocol: as §1

[4] = tested on: Staphylococcus aureus 2012 (VISA); test: MIC by broth microdilution, SA 2012; details: class symbols
Protocol: as §1

Enterococcus faecium 800 = test: MIC by broth microdilution, EFcm 800
Protocol: as §1

[5] = tested on: Staphylococcus epidermidis 831 (MRSE); test: MIC by broth microdilution, SE 831; details: read-out: MIC SE 831
Protocol: as §1

[6] = tested on: Streptococcus pyogenes 712; test: MIC by broth microdilution, SPY 712
Protocol: as §1

[7] = tested on: Staphylococcus aureus 757 (MRSA); test: MIC by broth microdilution, SA 757; details: read-out: MIC SA 757
Protocol: as §1

[8] = tested on: Staphylococcus epidermidis 835; test: MIC by broth microdilution, SE 835
Protocol: as §1

[9] = tested on: Enterococcus faecium 752 (VRE, Van A); test: MIC by broth microdilution, EFcm 752; details: class symbols
Protocol: as §1

[10] = tested on: Staphylococcus aureus 100 (ATCC 29213); test: MIC by broth microdilution, SA 100
Protocol: as §1

[11] = Enterococcus faecalis, ATCC29212, read-out: MIC E FC 101, Enterococcus faecalis 101 (ATCC 29212)
[12] = Enterococcus faecalis, VRE, read-out: MIC E FC 848, Enterococcus faecalis 848 (VRE, Van A)
[13] = Streptococcus pneumoniae, ATCC49619, read-out: MIC S PNE 1195
[14] = Staphylococcus aureus, VISA, read-out: MIC SA 2012, Staphylococcus aureus 2012 (VISA)
[15] = Enterococcus faecium, 800, read-out: MIC E FCM 800
[16] = Staphylococcus epidermidis, MRSE
[17] = Streptococcus pyogenes, 712, read-out: MIC S PYO 712
[18] = Staphylococcus epidermidis, 835, read-out: MIC SE 835
[19] = Enterococcus faecium, VRE, read-out: MIC E FCM 752, Enterococcus faecium 752 (VRE, Van A)
[20] = Staphylococcus aureus, ATCC29213, read-out: MIC SA 100

Structure (SMILES)	MIC [1, 11] [µg/mL]	MIC [2, 12] [µg/mL]	MIC [3, 13] [µg/mL]	MIC [4, 14] [µg/mL]	MIC (Enterococcus faecium 800; [15]) [µg/mL]	MIC [5, 16] [µg/mL]	MIC [6, 17] [µg/mL]	MIC ([7]; Staphylococcus aureus, MRSA) [µg/mL]	MIC [8, 18] [µg/mL]	MIC [9, 19] [µg/mL]	MIC [10, 20] [µg/mL]	also measured
CCCCCOc1ccc(S(=O)(=O)NCCCCNCc2c(O)cc3c(c2O)-c2cc(ccc2O)[C@H]2NC(=O)[C@@H]4NC(=O)[C@H](CC(N)=O)NC(=O)[C@H](NC(=O)[C@@H](CC(C)C)NC)[C@H](O)c5ccc(c(Cl)c5)Oc5cc4cc(c5O[C@@H]4O[C@H](CO)[C@@H](O)[C@H](O)[C@H]4O[C@H]4C[C@](C)(NC(=O)CN)[C@H](O)[C@H](C)O4)Oc4ccc(cc4Cl)[C@@H](O)[C@H](NC2=O)C(=O)N[C@@H]3C(=O)O)cc1 (atropisomer, axis not shown) [Compound 346]												MIC ([1]; ATCC29212, Enterococcus faecalis 101 (ATCC 29212), read-out: MIC E FC 101): 0.5 to 1 µg/mL (≈ 0.273 to 0.546 µM); MIC ([2]; Enterococcus faecalis 848 (VRE, Van A), read-out: MIC E FC 848): > 16 µg/mL; MIC ([3]; ATCC49619, Streptococcus pneumoniae 1195 (ATCC 49619), class symbols, read-out: MIC S PNE 1195): 0.01 to 0.5 µg/mL (≈ 0.00546 to 0.273 µM); MIC ([4]; Staphylococcus aureus 2012 (VISA), read-out: MIC SA 2012): 0.5 to 1 µg/mL (≈ 0.273 to 0.546 µM); MIC (Enterococcus faecium 800; Enterococcus faecium 800, class symbols, read-out: MIC E FCM 800): 0.01 to 0.5 µg/mL (≈ 0.00546 to 0.273 µM); MIC ([5]; Staphylococcus epidermidis 831 (MRSE), class symbols): 0.01 to 0.5 µg/mL (≈ 0.00546 to 0.273 µM); MIC ([6]; Streptococcus pyogenes 712, class symbols, read-out: MIC S PYO 712): 0.01 to 0.5 µg/mL (≈ 0.00546 to 0.273 µM); MIC ([7]; Staphylococcus aureus 757 (MRSA), class symbols): 0.01 to 0.5 µg/mL (≈ 0.00546 to 0.273 µM); MIC ([8]; Staphylococcus epidermidis 835, class symbols, read-out: MIC SE 835): 0.01 to 0.5 µg/mL (≈ 0.00546 to 0.273 µM); MIC ([9]; Enterococcus faecium 752 (VRE, Van A), read-out: MIC E FCM 752): 8 to 16 µg/mL (≈ 4.36 to 8.73 µM); MIC ([10]; ATCC29213, Staphylococcus aureus 100 (ATCC 29213), class symbols, read-out: MIC SA 100): 0.01 to 0.5 µg/mL (≈ 0.00546 to 0.273 µM)
CNCCOc1ccc(CCNC(=O)Oc2cc(O)c3c(c2)[C@@H](C(=O)NC2C4CC5CC(C4)CC2C5)NC(=O)[C@H]2NC(=O)[C@H](NC(=O)[C@@H]4NC(=O)[C@H](CC(N)=O)NC(=O)[C@H](NC(=O)[C@@H](CC(C)C)NC)[C@H](O)c5ccc(c(Cl)c5)Oc5cc4cc(c5O[C@@H]4O[C@H](CO)[C@@H](O)[C@H](O)[C@H]4O[C@H]4C[C@](C)(N)[C@H](O)[C@H](C)O4)Oc4ccc(cc4Cl)[C@H]2O)c2ccc(O)c-3c2)cc1 (some centres unmarked) [Compound 335]	0.01 to 0.5 (≈ 0.00555 to 0.277 µM)	> 16	0.01 to 0.5 (≈ 0.00555 to 0.277 µM)	1 to 2 (≈ 0.555 to 1.11 µM)	0.01 to 0.5 (≈ 0.00555 to 0.277 µM)	0.01 to 0.5 (≈ 0.00555 to 0.277 µM)	0.01 to 0.5 (≈ 0.00555 to 0.277 µM)	0.01 to 0.5 (≈ 0.00555 to 0.277 µM)	0.01 to 0.5 (≈ 0.00555 to 0.277 µM)	2 to 4 (≈ 1.11 to 2.22 µM)	0.01 to 0.5 (≈ 0.00555 to 0.277 µM)	
CCCCCOc1ccc(S(=O)(=O)NCCCCNC(=O)Oc2cc(O)c3c(c2)[C@@H](C(=O)NC2C4CC5CC(C4)CC2C5)NC(=O)[C@H]2NC(=O)[C@H](NC(=O)[C@@H]4NC(=O)[C@H](CC(N)=O)NC(=O)[C@H](NC(=O)[C@@H](CC(C)C)NC)[C@H](O)c5ccc(c(Cl)c5)Oc5cc4cc(c5O[C@@H]4O[C@H](CO)[C@@H](O)[C@H](O)[C@H]4O[C@H]4C[C@](C)(N)[C@H](O)[C@H](C)O4)Oc4ccc(cc4Cl)[C@H]2O)c2ccc(O)c-3c2)cc1 (some centres unmarked) [Compound 334]	0.01 to 0.5 (≈ 0.0052 to 0.26 µM)	8 to 16 (≈ 4.16 to 8.32 µM)	0.01 to 0.5 (≈ 0.0052 to 0.26 µM)	1 to 2 (≈ 0.52 to 1.04 µM)	0.01 to 0.5 (≈ 0.0052 to 0.26 µM)	0.01 to 0.5 (≈ 0.0052 to 0.26 µM)	0.01 to 0.5 (≈ 0.0052 to 0.26 µM)	0.01 to 0.5 (≈ 0.0052 to 0.26 µM)	0.01 to 0.5 (≈ 0.0052 to 0.26 µM)	0.5 to 1 (≈ 0.26 to 0.52 µM)	0.01 to 0.5 (≈ 0.0052 to 0.26 µM)	
CCCCCOCCNC(=O)Oc1cc(O)c2c(c1)[C@@H](C(=O)NC1C3CC4CC(C3)CC1C4)NC(=O)[C@H]1NC(=O)[C@H](NC(=O)[C@@H]3NC(=O)[C@H](CC(N)=O)NC(=O)[C@H](NC(=O)[C@@H](CC(C)C)NC)[C@H](O)c4ccc(c(Cl)c4)Oc4cc3cc(c4O[C@@H]3O[C@H](CO)[C@@H](O)[C@H](O)[C@H]3O[C@H]3C[C@](C)(N)[C@H](O)[C@H](C)O3)Oc3ccc(cc3Cl)[C@H]1O)c1ccc(O)c-2c1 (some centres unmarked) [Compound 340]	0.01 to 0.5 (≈ 0.00575 to 0.287 µM)	8 to 16 (≈ 4.6 to 9.2 µM)	0.01 to 0.5 (≈ 0.00575 to 0.287 µM)	0.5 to 1 (≈ 0.287 to 0.575 µM)	0.01 to 0.5 (≈ 0.00575 to 0.287 µM)	0.01 to 0.5 (≈ 0.00575 to 0.287 µM)	0.01 to 0.5 (≈ 0.00575 to 0.287 µM)	0.01 to 0.5 (≈ 0.00575 to 0.287 µM)	0.01 to 0.5 (≈ 0.00575 to 0.287 µM)	2 to 4 (≈ 1.15 to 2.3 µM)	0.01 to 0.5 (≈ 0.00575 to 0.287 µM)	
CCOCCOCCNC(=O)Oc1cc(O)c2c(c1)[C@@H](C(=O)O)NC(=O)[C@H]1NC(=O)[C@H](NC(=O)[C@@H]3NC(=O)[C@H](CC(N)=O)NC(=O)[C@H](NC(=O)[C@@H](CC(C)C)NC)[C@H](O)c4ccc(c(Cl)c4)Oc4cc3cc(c4O[C@@H]3O[C@H](CO)[C@@H](O)[C@H](O)[C@H]3O[C@H]3C[C@](C)(N)[C@H](O)[C@H](C)O3)Oc3ccc(cc3Cl)[C@H]1O)c1ccc(O)c-2c1 (atropisomer, axis not shown) [Compound 353]	4 to 8 (≈ 2.49 to 4.97 µM)	> 16	0.01 to 0.5 (≈ 0.00622 to 0.311 µM)	> 16	2 to 4 (≈ 1.24 to 2.49 µM)	4 to 8 (≈ 2.49 to 4.97 µM)	1 to 2 (≈ 0.622 to 1.24 µM)	4 to 8 (≈ 2.49 to 4.97 µM)	8 to 16 (≈ 4.97 to 9.95 µM)	> 16	4 to 8 (≈ 2.49 to 4.97 µM)	
CNCCCCCNC(=O)Oc1cc(O)c2c(c1)[C@@H](C(=O)NC1C3CC4CC(C3)CC1C4)NC(=O)[C@H]1NC(=O)[C@H](NC(=O)[C@@H]3NC(=O)[C@H](CC(N)=O)NC(=O)[C@H](NC(=O)[C@@H](CC(C)C)NC)[C@H](O)c4ccc(c(Cl)c4)Oc4cc3cc(c4O[C@@H]3O[C@H](CO)[C@@H](O)[C@H](O)[C@H]3O[C@H]3C[C@](C)(N)[C@H](O)[C@H](C)O3)Oc3ccc(cc3Cl)[C@H]1O)c1ccc(O)c-2c1 (some centres unmarked) [Compound 336]	0.01 to 0.5 (≈ 0.0058 to 0.29 µM)	> 16	0.01 to 0.5 (≈ 0.0058 to 0.29 µM)	1 to 2 (≈ 0.58 to 1.16 µM)	0.01 to 0.5 (≈ 0.0058 to 0.29 µM)	0.01 to 0.5 (≈ 0.0058 to 0.29 µM)	0.01 to 0.5 (≈ 0.0058 to 0.29 µM)	0.01 to 0.5 (≈ 0.0058 to 0.29 µM)	0.01 to 0.5 (≈ 0.0058 to 0.29 µM)	> 16	0.01 to 0.5 (≈ 0.0058 to 0.29 µM)	
CCCCCOc1ccc(CCNC(=O)Oc2cc(O)c3c(c2)[C@@H](C(=O)NC2C4CC5CC(C4)CC2C5)NC(=O)[C@H]2NC(=O)[C@H](NC(=O)[C@@H]4NC(=O)[C@H](CC(N)=O)NC(=O)[C@H](NC(=O)[C@@H](CC(C)C)NC)[C@H](O)c5ccc(c(Cl)c5)Oc5cc4cc(c5O[C@@H]4O[C@H](CO)[C@@H](O)[C@H](O)[C@H]4O[C@H]4C[C@](C)(N)[C@H](O)[C@H](C)O4)Oc4ccc(cc4Cl)[C@H]2O)c2ccc(O)c-3c2)cc1 (some centres unmarked) [Compound 338]	0.01 to 0.5 (≈ 0.00551 to 0.275 µM)		0.01 to 0.5 (≈ 0.00551 to 0.275 µM)		0.01 to 0.5 (≈ 0.00551 to 0.275 µM)	0.01 to 0.5 (≈ 0.00551 to 0.275 µM)	0.01 to 0.5 (≈ 0.00551 to 0.275 µM)	0.01 to 0.5 (≈ 0.00551 to 0.275 µM)	0.01 to 0.5 (≈ 0.00551 to 0.275 µM)		0.01 to 0.5 (≈ 0.00551 to 0.275 µM)	
